Laboratory results from patent US10777299B2, “Systems and methods for matching oncology signatures” (THE TRUSTEES OF COLUMBIA UNIVERSITY IN THE CITY OF NEW YORK, priority 2015, dated 2020).

Legend:
H-STS xenograft [1] = assay: H-STS xenograft tumor growth, follow-up studies at Columbia; format: in vivo, mice; settings: mean of 8 animals
Experimental: (§1) In vivo validation in NOD-SCIDS mice xenografts established by subcutaneous injection of H-STS cells was first conducted at Champions Oncology and then independently confirmed in the mouse hospital facility at Columbia University. Mice were enrolled in treatment arms when tumor size reached 250 mm^3 and were treated for 25 days. Tumor size was measured twice weekly by digital caliper, see methods.
This is in line with the poor effect of Bardoxolone methyl, I-BET151 and Bortezomib on xenograft tumor growth, and the strong abrogation elicited by Entinostat (FIGS. 10B and 10C). In summary, while the effect of the Entinostat, I-BET151 and Bardoxolone methyl on the reversal of patient-0 checkpoint activity inferred from the in vitro H-STS perturbation assay was confirmed in the xenograft model, only Entinostat reverted the activity of the H-STS xenograft checkpoints and abrogated tumor growth (FIG. 10).
FIG. 10A depicts enrichment of patient-0 metastasis checkpoint MRs on the protein activity signatures induced by 6 selected compounds in the H-STS cells. FIGS. 10B and 10C depict growth curves for the H-STS xenograft while treated by vehicle control, and each of the 6 selected compounds. Curves show tumor volume for individual animals (FIG. 10B) or the mean±SEM of 8 animals (FIG. 10C). FIG. 10D depicts enrichment of patient-0 metastasis checkpoint on the protein activity signatures induced by 4 selected compounds in the H-STS xenograft. FIG. 10E depicts enrichment of H-STS xenograft checkpoint on the protein activity signatures induced by 4 selected compounds in the H-STS xenograft.

[2] = system: patient-0 checkpoint protein activity; assay: Xenograft transcriptome analysis after drug administration, patient-0 checkpoint; format: in vivo, mice; settings: xenograft transcriptome 3 hours after 3rd drug administration
[3] = system: patient-0 metastasis checkpoint MRs; assay: OncoTreat: VIPER-inferred MR reversal after compound perturbation of H-STS cells, patient-0 MRs; format: cell-based, human; settings: H-STS cell perturbation, FIG. 10A
Experimental: (§2) To assess the ability of these compounds to induce Tumor Checkpoint collapse (i.e., global inversion of patient-derived MR activity pattern), gene expression profiles were generated at 6 h and 24 h following perturbation of H-STS cells with two sub-lethal compound concentrations, the 72 h IC20 and 1/10th of that concentration in duplicate. The 24 h time point was considered more informative for long term response. These were produced by 30M SE read Illumina TruSeq profiling of RNA purified from treated cells as well as from cells treated with control media (DMSO). This ensured that the highest compound concentration can be tested that would not induce cell death processes and would thus faithfully recapitulate the compound mechanism of action (MoA) rather than the mechanisms and programs associated with cell demise. While in vivo endpoint phenotypes (e.g., tumor viability) are not effectively recapitulated in 2D cultures in vitro, compound MoA is reasonably well-recapitulated in both contexts. One aim can be to identify compounds capable of inverting MR activity signature in vitro in a relatively faithful model of the tumor regulatory context, to assess whether these compounds would have activity in vivo.
(§3) Drug signatures were analyzed with VIPER to assess the change in protein activity before and after the perturbation. Specifically, RX-GES were generated by differential expression of compound-treated vs. control-vehicle-treated cells at all time points and concentrations and analyzed with VIPER against the EP-NET interactome. This ranked all 5,602 regulatory proteins represented in the interactome from the one whose activity was most inhibited to the one whose activity was most increased following drug perturbation. An aREA analysis of patient samples that were well represented by the H-STS xenograft model was performed to assess enrichment of metastatic progression MRs in proteins whose activity was most inverted following drug perturbation. Since validation of these predictions was performed in H-STS mouse xenograft models, the analysis was limited to each NET-MET MRs that were recapitulated in the H-STS xenograft. […] Rather they allow optimal tuning of the results to available in vitro and in vivo models for optimal design of validation assays. Thus, the OncoTreat methodology uses the ability to prioritize small molecule compounds that optimally reverse a patient-specific MR activity signature.
FIG. 15 depicts the enrichment of the top 50 most activated (shown in red in the enrichment plots) and the top 50 most deactivated (shown in blue) proteins in patient 0 on the protein activity signature induced by each compound perturbation in the H-STS cell line. […] The colored bar indicates the tissue of origin for each of the evaluated tumors. […]

[4] = system: H-STS xenograft checkpoint MRs; assay: OncoTreat: VIPER-inferred MR reversal after compound perturbation of H-STS cells, xenograft MRs; format: cell-based, human; settings: H-STS cell perturbation
Experimental: as §2, §3
FIG. 15 depicts the enrichment of the top 50 most activated (shown in red in the enrichment plots) and the top 50 most deactivated (shown in blue) proteins in patient 0 on the protein activity signature induced by each compound perturbation in the H-STS cell line. […] The colored bar indicates the tissue of origin for each of the evaluated tumors.

[5] = system: rectal neuroendocrine tumor metastasis (NET-MET) tumor checkpoint; assay: Drug-induced VIPER-inferred protein activity signatures in H-STS cells versus NET-MET checkpoint; format: cell-based, human; settings: H-STS cell line
Excerpt: Drug MoA information was inferred using a NET liver metastasis-derived cell line (H-STS), which recapitulated the tumor checkpoint inferred from patient's samples (FIG. 6A).
Drug-induced VIPER-inferred protein activity signatures were obtained for a few drugs including entinostat. […] Drug MoA information was inferred using a NET liver metastasis-derived cell line (H-STS), which recapitulated the tumor checkpoint inferred from patient's samples, as shown in FIG. 6A.

H-STS xenograft [6] = assay: H-STS xenograft tumor growth, Champions Oncology (TGI, RECIST, TR); format: in vivo, mice; settings: for % TGI: H-STS xenograft in NOD-SCIDS mice, treated 25 days; for effect on H-STS xenograft tumor growth (FIG. 4B): H-STS xenograft models; for RECIST PD/SD/PR/CR: number of mice per response class; for % TR (tumor regression): H-STS xenograft
Experimental: All test agents were formulated according to manufacturer's specifications. Beginning Day 0, tumor dimensions were measured twice weekly by digital caliper and data, including individual and mean estimated tumor volumes (Mean TV±SEM), were recorded for each group. Tumor volume was calculated using the formula: […].
At study completion, percent tumor growth inhibition (% TGI) values were calculated and reported for each treatment group (T) versus control (C) using initial (i) and final (f) tumor measurements by the formula: % TGI=[1−(Tf−Ti)/(Cf−Ci)]×100. Individual mice reporting a tumor volume >120% of the Day 0 measurement were considered to have progressive disease (PD). Individual mice with neither sufficient shrinkage nor sufficient tumor volume increases are considered to have stable disease (SD). Individual mice reporting a tumor volume ≤70% of the Day 0 measurement for two consecutive measurements over a seven day period were considered partial responders (PR). If the PR persisted until study completion, percent tumor regression (% TR) was determined using the formula: % TR=(1−Tf/Ti)×100; a mean value was calculated for the entire treatment group. Individual mice lacking palpable tumors for two consecutive measurements over a seven day period were classified as complete responders (CR). All data collected in this study were managed electronically and stored on a redundant server system.
as §1

[7] = system: H-STS xenograft checkpoint; assay: Xenograft transcriptome analysis after drug administration, H-STS xenograft checkpoint; format: in vivo, mice; settings: xenograft transcriptome 3 hours after 3rd drug administration

CC(C)C[C@H](NC(=O)[C@H](Cc1ccccc1)NC(=O)c1cnccn1)B(O)O [Bortezomib]
xenograft tumor growth versus vehicle control (FIG. 10C) (H-STS xenograft [1]): no significant difference | inhibition of patient-0 checkpoint protein activity in xenograft (FIG. 10D) [2]: no effect

O=C(/C=C/c1cccc(S(=O)(=O)Nc2ccccc2)c1)NO [Belinostat]
reversal of patient-0 MRs (in words) [3]: no significant reversal | reversal of xenograft MRs (in words) [4]: no significant reversal | reverting the NET-MET tumor checkpoint (FIG. 4A) [5]: not affecting NET-MET checkpoint | % TGI (H-STS xenograft [6]; 20 mg (text: 20 mg/kg/dose)): 8% | % TGI (H-STS xenograft [6]; 20 mg (text: 20 mg/kg/dose), listed as PDX101): 8% | % TGI (H-STS xenograft [6]; 40 mg): −55% | effect on H-STS xenograft tumor growth (FIG. 4B) (H-STS xenograft [6]): did not abrogate tumor growth | RECIST PD/SD/PR/CR (H-STS xenograft [6]; 20 mg): 3/0/0/0 | RECIST PD/SD/PR/CR (H-STS xenograft [6]; 40 mg): 3/0/0/0

Nc1ccccc1NC(=O)c1ccc(CNC(=O)OCc2cccnc2)cc1 [Entinostat]
reversal of patient-0 MRs (in words) [3]: significantly abrogating | reversal of patient-0 MRs (in words) ([3]; listed as entinostat): most significant reversal | reversal of xenograft MRs (in words) [4]: significantly abrogating | reversal of xenograft MRs (in words) ([4]; listed as entinostat): most significant reversal | reverting the NET-MET tumor checkpoint (FIG. 4A) [5]: most potent agent | drug toxicity / animal deaths (H-STS xenograft [6]; 100 mg (text: 100 mg/kg/dose), one week into the test): toxic | % TGI (H-STS xenograft [6]; 25 mg (text: 25 mg/kg/dose)): 112% | % TGI (H-STS xenograft [6]; 25 mg (text: 25 mg/kg/dose), listed as MS-27-275): 112% | % TGI (H-STS xenograft [6]; 50 mg (50 mg/kg/dose)): 110% | % TGI (H-STS xenograft [6]; 50 mg (50 mg/kg/dose), listed as MS-27-275): 110% | effect on H-STS xenograft tumor growth (FIG. 4B) (H-STS xenograft [6]): abrogated completely tumor growth | % TR (tumor regression) (H-STS xenograft [6]; 25 mg (text: 25 mg/kg/dose)): 68% | % TR (tumor regression) (H-STS xenograft [6]; 50 mg (50 mg/kg/dose)): 58% | % TR (tumor regression) (H-STS xenograft [6]; 100 mg (text: 100 mg/kg/dose), single surviving animal): 49% | RECIST PD/SD/PR/CR (H-STS xenograft [6]; 25 mg): 0/0/3/0 | RECIST PD/SD/PR/CR (H-STS xenograft [6]; 50 mg): 0/0/3/0 | RECIST PD/SD/PR/CR (H-STS xenograft [6]; 100 mg): 0/0/1/0 | xenograft tumor growth versus vehicle control (FIG. 10C) (H-STS xenograft [1]): complete tumor growth abrogation | inhibition of patient-0 checkpoint protein activity in xenograft (FIG. 10D) [2]: strong inhibition | inhibition of the H-STS xenograft checkpoint in xenograft (FIG. 10E) [7]: significant inhibition

O=C1NC(=O)[C@@H](c2cn3c4c(cccc24)CCC3)[C@@H]1c1c[nH]c2ccccc12 [Tivantinib]
% TGI (H-STS xenograft [6]; 50 mg (50 mg/kg/dose)): −46% | % TGI (H-STS xenograft [6]; 100 mg (text: 100 mg/kg/dose)): 28% | % TGI (H-STS xenograft [6]; 100 mg (text: 100 mg/kg/dose), listed as ARQ197): 28% | % TGI (H-STS xenograft [6]; 200 mg (text: 200 mg/kg/dose)): 43% | % TGI (H-STS xenograft [6]; 200 mg (text: 200 mg/kg/dose), listed as ARQ197): 43%

COc1cc2c(cc1-c1c(C)noc1C)ncc1[nH]c(=O)n([C@H](C)c3ccccn3)c12 [I-BET151]
reversal of patient-0 MRs (in words) [3]: significantly abrogating | reversal of xenograft MRs (in words) [4]: significantly abrogating | xenograft tumor growth versus vehicle control (FIG. 10C) (H-STS xenograft [1]): no significant difference | inhibition of patient-0 checkpoint protein activity in xenograft (FIG. 10D) [2]: strong inhibition
